“Also recorded” adds a separate entry of the source. Where two headings read alike, the source gives them in different places.
Assays:
rats = details: cited from earlier work
[1] = system: patients with diabetes mellitus type 2; assay: Effect of GLP-1 infusion on eating behaviour in diabetes mellitus type 2 (Example 2)
Procedure: Twelve male patients were recruited for the study who had diabetes mellitus type 2 for at least one year. Patients were admitted to a Research Unit after given written informed consent and after the experimental protocol had been explained to them. The mean age of the patients was 55±2 years; their mean HbA1C was 8.1±4 and their mean BMi was 29.4±1.2. Seven patients were on oral antidiabetics. The participants were tested on two different days in a placebo-controlled, randomized, double-blind, crossover study. The two test days were separated by at least one week and by no more than three weeks.
On each test day, patients arrived in the Research Unit in the morning, having fasted overnight. A standardized, fixed energy breakfast was then served and it had to be completed before 8:30 a.m. After breakfast, patients were able to read and listen to music. At 11:00 a.m., two venflon catheters were inserted into the anticubital veins of each arm, one for infusion, the other one for blood drawing. […] Infusions were delivered by ambulatory infusion pumps. 60 min after the start of the respective infusion, a test meal was presented and the participants were invited to eat and drink as much as they liked.
Beginning with the infusions, participants scored their subjective feelings of hunger and fullness in 15 min intervals throughout the experiments using visual analogue scales (VAS) of 0–10 with text expressing the most positive and most negative rating anchored at each end. VAS were used to assess hunger, fullness, and prospective food consumption using scales and scores which have previously been designed.
Each subject was free to eat and drink as much as they wished until “comfortably satisfied” of a standard meal which consisted of a) orange juice as an appetizer (480 kcal/l); b) ham sandwiches (60 g, 10 g butter, 25 g ham: 266 kcal/sandwich) with more orange juice or with water; c) strawberry mousse (100 kcal/100 g); d) coffee with cream (coffee could be sweetened with aspartam if desired; both cream and aspartan were optional; 12 g cream=20 kcal). No additional food or fluid was allowed during the study. In addition, the order of food intake had to follow the above schedule. To reduce participants' awareness of the amount of food being provided, food was served in excess. The quantity of food eaten and the quantity of fluid drunk were measured. From these observations, the total energy intake could be calculated. In the pre-meal period and after eating, blood samples were taken in regular intervals for glucose and hormone determinations. Adverse events were assessed by the attending physician through close observation of each patient; in addition, each participant was questioned after each experiment and after they had completed the two tests whether they had experienced any adverse events.
The peptide was dissolved in 0.9% saline solution containing 0.5% human serum albumin and prepared under aseptic conditions by the University of Basel Hospital Pharmacy. Aliquots of 50 μg/5 ml were stored at −20° C. […] The solutions were prepared by a pharmacist who was not involved in the study. The physician in charge of the experiment was therefore not aware of the respective treatment, thereby making it possible to conduct treatments in a double-blind fashion.
The amount of food eaten and the amount of fluid drunk as well as the corresponding energy intake were compared between the two treatments by Wilcoxon Signed Ranks Test using an SAS software package. […] Scores for hunger and fullness were compared by calculating the S score from baseline (0 min) to 60 min of infusion using the Wilcoxon Signed Ranks Test. Differences were considered significant if p was <0.05.

healthy male subjects = assay: Effect of graded intravenous doses of synthetic human GLP-1 on food intake (Example 1); details: for Calorie intake / Fluid intake / Food quantity / Meal duration: 16 healthy male subjects, mean, SEM
Procedure: A randomized, double-blind design was carried out with 16 healthy men aged 23.6±0.5 years. The weight of all subjects was within normal range considering their age, sex, and height. Each subject gave written informed consent for the study.
Four treatments (0, 0.375, 0.75 and 1.5 pmol/kg), separated by at least 7 days, were administered to the 16 subjects. […] An identical standard meal was presented to the subjects on each occasion. The meal consisted of orange juice as an appetizer (480 kcal per 1); ham sandwiches (60 g bread, 10 g butter, 25 g ham 266 kcal per sandwich) and more orange juice and chocolate pudding (172 kcal per 100 g): coffee with cream and sugar (coffee could be sweetened if desired; therefore both cream and sugar were optional @ 12 g cream=20 kcal, 4.5 sugar=18 kcal). No other food or liquid was allowed during the study. At the end of the study, the amount of food eaten and the amount of fluid ingested was measured by absolute weight from which total caloric intake (food and fluid intake) was calculated.
Each subject was free to eat and drink as much as they wished, but the order of food intake had to follow the above schedule. To reduce participant's awareness of the amount of food being provided, food was served in excess.
On the first day of each treatment, each subject ate breakfast, if this was their normal custom; however, no snacks were allowed after 8:00 a.m. […] Infusions were delivered by ambulatory infusion pumps through a teflon catheter inserted into a forearm vein. Participants were able to sit, eat, stand and walk comfortably while receiving infusions. At 60 minutes after the start of the respective infusion, the test meal was presented and each participant was invited to eat and drink as much as they liked.
Beginning at 12:00 noon, the subjects scored their subjective feelings of hunger and fullness at 15 minute intervals throughout the treatments using a visual analogue scale of 0–10 and indicated the scores on a questionnaire. The scales and scores were designed as previously described (Welch I. M. et al. Gut 29:306–311 (1988); Welch I. M. et al. Gastroenterology 89:1293–1297 (1985); Drewe, J. et al. Gastroenterology 102:1654–1659 (1982)). For example, a score of 0 for hunger indicated the subject was not hungry at all, 2 indicated slightly hungry, 5 indicated moderately hungry, 8 indicated very hungry, and 10 indicated absolutely ravenous.
The quantity of food eaten and volume of fluid drunk was measured. The time for each subject to complete their meal was also measured. From these observations, the average rate of food and fluid intake, as well as the calorie intake, could be calculated. In the pre-meal period and after eating, blood was drawn at regular intervals into ethylenediaminetetraacetic acid (EDTA) tubes containing aprotinine (1000 KIU/ml blood) for glucose and hormone determinations.
The peptide was dissolved in 0.9% saline containing 0.5% human serum albumin, and prepared under aseptic conditions. Aliquots of 50 μg/5 ml were stored at −20° C. […] Treatments were delivered in a double-blind fashion.
The amount of food eaten and the amount of fluid drunk, the corresponding energy intake, and the duration of meal consumption were compared between the four by one-way analysis of variance (ANOVA) using the general linear model (GLM) procedure of the SAS software package (SAS Release 6.03. Cary, N C: SAS Institute, 1988). In the event of significant differences, ANOVA was followed by the Newman-Keuls multi-comparison test for pairwise comparisons (Sachs, L. Angewandte Statistik. Berlin, Springer, (1984)). […] Scores for hunger and fullness were compared at the different time points before and after meals between the different treatments using multiple paired t-tests with Bonferroni correction (Sachs, L. Angewandte Statistik. Berlin, Springer, (1984)).

[2] = Plasma glucose and hormone concentrations during graded GLP-1 infusion (Example 1); type: in vivo, human; details: healthy male subjects
Procedure: Glucose concentrations were measured by the hexokinase method. Plasma hormone concentrations of insulin, cholecystokinin, GLP-1 and leptin were measured as depicted in FIG. 1. All hormone concentrations were determined by specific radioimmunoassay systems. For insulin and leptin concentrations commercially available test kits were used. […] GLP-1 was measured as previously described (Schirra, J. et al. Proc. Assoc. Am. Phys. 109(1):84–971 (1997)). The detection limit of the GLP-1 assay was 2 fmol/tube. […] Intra-assay and inter-assay coefficients of variation were 3.4% and 10.4%, respectively.

obese humans = details: infusion of GLP-1 over 210 minutes; cited from earlier work
[3] = Plasma glucose and hormone concentrations during GLP-1 infusion (Example 2); type: in vivo, human; details: diabetes mellitus type 2
Procedure: Blood was drawn through the indwelling anticubital cannula into syringes on ice. These contained EDTA (6 μmol/l) and aprotinine (1000 KIU/l). After centrifugation, plasma hormone analyses were kept frozen at −20° C. Plasma glucose was analyzed by the glucose oxidase method. Insulin and glucagon concentrations in plasma were analyzed by commercially available radioimmunoassay kits (Biermann, Bad Nauheim, Germany). Immunoreactive GLP-1 was measured using the specific polyclonal antibody GA 1178 (Affinity Research, Nottingham, UK). Immunoreactivities were extracted from plasma samples on C-18 cartridges using acetonitrile for elution of samples. The detection limit of the assay was 0.25 pmol/l. Intra-and interassay coefficients of variation were 3.8% and 10.9%, respectively.
Differences were considered significant if p was <0.05.

[4] = GLP-1 1.5 pmol/kg per min i.v. vs saline, diabetes mellitus type 2
[5] = GLP-1 1.5 pmol/kg per min i.v., 12 patients with diabetes mellitus type 2, mean ± SEM
[6] = pre-meal period, baseline vs 60 min of infusion, diabetes mellitus type 2
[7] = GLP-1 0.375 pmol/kg/min i.v. infusion
[8] = GLP-1 0.75 pmol/kg/min i.v. infusion
[9] = GLP-1 1.5 pmol/kg/min i.v. infusion
[10] = pre-meal period, significant only for highest dose of GLP-1, healthy male subjects

Q: With exendin (9–39) [reference compound] as the compound, how does the “effect on GLP-1-induced inhibition of feeding” value (rats; GLP-1 injected into the cerebral ventricles of fasted rats) read?
A: blocked

Q: What about the food intake (rats; exendin (9–39) alone, satiated rats) of the same compound?
A: doubled food intake

Q: With `CC[C@H](C)[C@H](NC(=O)[C@H](Cc1ccccc1)NC(=O)[C@H](CCC(=O)O)NC(=O)[C@H](CCCCN)NC(=O)[C@H](C)NC(=O)[C@H](C)NC(=O)[C@H](CCC(N)=O)NC(=O)CNC(=O)[C@H](CCC(=O)O)NC(=O)[C@H](CC(C)C)NC(=O)[C@H](Cc1ccc(O)cc1)NC(=O)[C@H](CO)NC(=O)[C@H](CO)NC(=O)[C@@H](NC(=O)[C@H](CC(=O)O)NC(=O)[C@H](CO)NC(=O)[C@@H](NC(=O)[C@H](Cc1ccccc1)NC(=O)[C@@H](NC(=O)CNC(=O)[C@H](CCC(=O)O)NC(=O)[C@H](C)NC(=O)[C@@H](N)Cc1c[nH]cn1)[C@@H](C)O)[C@@H](C)O)C(C)C)C(=O)N[C@@H](C)C(=O)N[C@@H](Cc1c[nH]c2ccccc12)C(=O)N[C@@H](CC(C)C)C(=O)N[C@H](C(=O)N[C@@H](CCCCN)C(=O)NCC(=O)N[C@@H](CCCNC(=N)N)C(N)=O)C(C)C` [GLP-1, Glucagon-like peptide-1 (7–36) amide] as the compound, how does the “decrease in calorie intake” value [1, 4] read?
A: 27%

Q: What about the “maximal reduction in food consumption” value [1, 4] of the same compound?
A: 29%

Q: And the Calorie intake [1, 5]?
A: 694 ± 79 kcal

Q: What about the Fluid intake [1, 5] of the same compound?
A: 360 ± 60 mL

Q: And the “Food quantity” value [1, 5]?
A: 268 ± 31 g

Q: What about the “side effects / adverse reaction” value ([1]; GLP-1 1.5 pmol/kg per min i.v., diabetes mellitus type 2) of the same compound?
A: None of the participants reported any abdominal discomfort or side effects

Q: And the “fullness (VAS 0–10)” value [1, 6]?
A: increased feeling of fullness

Q: And the “hunger (VAS 0–10)” value [1, 6]?
A: reduced degree of hunger

Q: And the Calorie intake (healthy male subjects; [7])?
A: 1520 ± 95 keal

Q: And the Fluid intake (healthy male subjects; [7])?
A: 748 ± 52 mL

Q: And the Food quantity (healthy male subjects; [7])?
A: 531 ± 35

Q: And the Meal duration (healthy male subjects; [7])?
A: 35 ± 3 min

Q: What about the Calorie intake (healthy male subjects; [8]) of the same compound?
A: 1451 ± 101 keal

Q: And the Fluid intake (healthy male subjects; [8])?
A: 689 ± 48 mL

Q: What about the Food quantity (healthy male subjects; [8]) of the same compound?
A: 516 ± 40

Q: And the Meal duration (healthy male subjects; [8])?
A: 34 ± 3 min

Q: What about the Calorie intake (healthy male subjects; [9]) of the same compound?
A: 1107 ± 84 keal

Q: And the Fluid intake (healthy male subjects; [9])?
A: 584 ± 45 mL

Q: What about the Food quantity (healthy male subjects; [9]) of the same compound?
A: 384 ± 34

Q: And the Meal duration (healthy male subjects; [9])?
A: 30 ± 3 min

Q: What about the “reduction of fluid ingestion” value (healthy male subjects; GLP-1 i.v. infusion vs control, healthy male subjects) of the same compound?
A: 18%

Q: And the “side effects / adverse reactions” value (healthy male subjects; any infusion (0.375-1.5 pmol/kg per min i.v.), healthy male subjects)?
A: None of the participants reported any abdominal discomfort or side effects; also recorded: no overt side effects

Q: And the “subjective feeling of fullness (visual analogue scale 0–10)” value (healthy male subjects; [10])?
A: concomitant feeling of fullness; also recorded: early fullness

Q: What about the “subjective feeling of hunger (visual analogue scale 0–10)” value (healthy male subjects; [10]) of the same compound?
A: reduced degree of hunger; also recorded: less hunger

Q: And the “food intake / feeding” value (rats; intracerebroventricular administration, fasted rats)?
A: reduce food intake; also recorded: inhibited feeding

Q: And the food intake (rats; intraperitoneal application, rats)?
A: did not have any effect

Q: And the leptin levels ([2]; any dose of GLP-1 administered)?
A: did not change

Q: And the “blood glucose and plasma insulin concentrations” value ([2]; graded i.v. doses of GLP-1 in 5% glucose)?
A: dose-dependent, short-lasting increase

Q: And the “plasma GLP-1 concentration” value ([2]; highest dose of GLP-1 (1.5 pmol/kg per min) i.v. infusion)?
A: supraphysiological plasma concentrations

Q: What about the “plasma CCK concentrations” value ([2]; pre-meal period, any dose of GLP-1) of the same compound?
A: did not change

Q: And the effect on appetite (obese humans)?
A: no effect on appetite

Q: What about the glucagon response ([3]; GLP-1 1.5 pmol/kg per min i.v. vs saline) of the same compound?
A: significantly reduced

Q: What about the “plasma concentrations of GLP-1” value ([3]; GLP-1 1.5 pmol/kg per min i.v.) of the same compound?
A: increased the plasma concentrations of GLP-1

Q: What about the “blood glucose AUC” value ([3]; GLP-1 1.5 pmol/kg per min i.v., saline 1197±101) of the same compound?
A: 765 ± 65 mmol·min/L

Q: And the “insulin AUC” value ([3]; GLP-1 1.5 pmol/kg per min i.v., saline 1775±357)?
A: 2920±516 μU×min/L

Source: patent US6998387B1, “Human appetite control by glucagon-like peptide receptor binding compounds” (Amylin Pharmaceuticals, Inc., priority 1998, dated 2006)
